Measurements: patent publication US20100041630A1, “Methods for Treating or Preventing Inflammation Using a Glycerophosphate Salt” (PRELIEF INC., priority 2007, published 2010)

System: rats with inflammatory condition associated with polyarthritis
Test: Therapeutic effectiveness in rats with polyarthritis induced by heat-killed Mycobacterium tuberculosis
Format: in vivo
Settings: therapeutically effective amount, injection 1 to 5 times a day for 3-10 days, polyarthritic rats

calcium glycerophosphate [CGP]
reduction of the overall arthritis score: at least 20%
